ChEMBL document CHEMBL1126716, “Synthesis and evaluation of the antitumor activity of 4,5-diamino-substituted 1,2-benzoquinones” (J Med Chem, 1993)

Experiments:
EMT6 [1] = assay: Tested for 50% inhibition against EMT-6 murine mammary carcinoma cell under normal oxygenated condition; assay type: functional, cell-based; conditions: Mus musculus
EMT6 [2] = assay: Tested for 50% inhibition against EMT-6 murine mammary carcinoma cell under hypoxia condition; assay type: functional, cell-based; conditions: Mus musculus
EMT6 [3] = assay: Tested for 90% inhibition against EMT-6 murine mammary carcinoma cell under hypoxia condition; assay type: functional; conditions: Mus musculus
EMT6 [4] = assay: Tested for 90% inhibition against EMT-6 murine mammary carcinoma cell under normal oxygenated condition; assay type: functional; conditions: Mus musculus
Mus musculus [5] = assay: Survival days at a dose of 0.50 mg/kg after ip administration on days 1-5; assay type: functional; conditions: dose 0.5 mg/kg; route intraperitoneal
Mus musculus [6] = assay: Increase in life span of animals bearing L1210 leukemia after ip administration at a dose of 1.00 mg/kg; assay type: functional; conditions: route intraperitoneal
Mus musculus [7] = assay: Survival days at a dose of 1.50 mg/kg after ip administration on days 1-5; assay type: functional; conditions: dose 1.5 mg/kg; route intraperitoneal
Mus musculus [8] = assay: Increase in life span of animals bearing L1210 leukemia after ip administration at a dose of 2.00 mg/kg; assay type: functional; conditions: route intraperitoneal
Mus musculus [9] = assay: Increase in life span of animals bearing L1210 leukemia after ip administration at a dose of 1.50 mg/kg; assay type: functional; conditions: route intraperitoneal
Mus musculus [10] = assay: Survival days at a dose of 2.50 mg/kg after ip administration on days 1-5; assay type: functional; conditions: dose 2.5 mg/kg; route intraperitoneal
Mus musculus [11] = assay: Survival days at a dose of 1.00 mg/kg after ip administration on days 1-5; assay type: functional; conditions: route intraperitoneal
Mus musculus [12] = assay: Increase in life span of animals bearing L1210 leukemia after ip administration at a dose of 2.50 mg/kg; Toxic; assay type: functional, organism-based; parameters: dose 2.5 mg/kg
Mus musculus [13] = assay: Increase in life span of animals bearing L1210 leukemia after ip administration at a dose of 1.25 mg/kg; assay type: functional; conditions: route intraperitoneal
Mus musculus [14] = assay: Survival days at a dose of 1.25 mg/kg after ip administration on days 1-5; assay type: functional; conditions: route intraperitoneal
Mus musculus [15] = assay: Survival days at a dose of 2.00 mg/kg after ip administration on days 1-5; assay type: functional; conditions: route intraperitoneal
Mus musculus [16] = assay: Increase in life span of animals bearing L1210 leukemia after ip administration at a dose of 0.50 mg/kg; assay type: functional; conditions: route intraperitoneal

IC50 (EMT6 [2]) | IC90 (EMT6 [3]) | Compound | IC50 (EMT6 [1]) | IC90 (EMT6 [4]) | other results
> 500 µM | > 500 µM | COC1=CC(=O)C(=O)C=C1OC | 500 µM | > 500 µM | –
110 µM | 190 µM | COC1=CC(=O)C(O)=C/C1=N\CCCl | 125 µM | 455 µM | –
> 500 µM | > 500 µM | O=C1C=C(N2CCCC2)C(N2CCCC2)=CC1=O | > 500 µM | > 500 µM | –
400 µM | > 500 µM | CCN(CC)C1=CC(=O)C(=O)C=C1N(CC)CC | 500 µM | > 500 µM | –
400 µM | > 500 µM | O=C1C=C(N2CCC2)C(N2CCC2)=CC1=O | 500 µM | > 500 µM | –

Compound | IC50 (EMT6 [2]) | IC90 (EMT6 [3]) | IC50 (EMT6 [1]) | IC90 (EMT6 [4]) | other results
CCOC(=O)NC1=C(N2CC2)C(=O)C(NC(=O)OCC)=C(N2CC2)C1=O [DIAZIQUONE] | 7.5 µM | – | 5 µM | – | –
O=C1C=C(N2CC2)C(N2CC2)=CC1=O | 0.2 µM | 1 µM | 0.4 µM | 1.1 µM | Survival days (Mus musculus [5]): 12.6; ILS at 1 mg/kg (Mus musculus [6]): 81%; Survival days (Mus musculus [7]): 13.8; ILS at 2 mg/kg (Mus musculus [8]): 59%; ILS at 1.5 mg/kg (Mus musculus [9]): 86%; Survival days (Mus musculus [10]): 6; Survival days (Mus musculus [11]): 13.4; ILS (Mus musculus [12]): Toxic; ILS at 1.25 mg/kg (Mus musculus [13]): 84%; Survival days (Mus musculus [14]): 13.6; Survival days (Mus musculus [15]): 11.8; ILS at 0.5 mg/kg (Mus musculus [16]): 70%
